Reference: PMC9469500, “Targeting an Initiator Allergen Provides Durable and Expansive Protection against House Dust Mite Allergy” (ACS Pharmacology & Translational Science, 2022)

Columns and labels:
unsensitized BN rats = test: HDM extract challenge in unsensitized (naive) BN rats, duration of protection; assay type: in vivo; settings: for performance in vivo (maximum inhibition of the eosinophil response, Figure 5A): focused library, durability of inhibition studies
Der p 1 = molecular target: T1, Der p 1 (Dermatophagoides pteronyssinus, UniProt P08176); assay type: biochemical; settings: Figure 5A, in words
T1 construct: from tissue; host or cells: spent culture medium of Dermatophagoides pteronyssinus (native HDM extract); ammonium sulfate precipitation, size exclusion, SBTI column, Resource Q
T1 sequence (P08176 99-320): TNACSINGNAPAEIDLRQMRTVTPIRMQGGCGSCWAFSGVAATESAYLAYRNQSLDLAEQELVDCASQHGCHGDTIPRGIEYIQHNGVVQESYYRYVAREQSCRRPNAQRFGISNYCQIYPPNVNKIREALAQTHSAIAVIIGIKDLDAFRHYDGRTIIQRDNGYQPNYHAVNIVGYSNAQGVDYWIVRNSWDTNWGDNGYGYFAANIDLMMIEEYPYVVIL
Description: Assays were assembled in 96-well plate format using a PerkinElmer Multiprobe II Plus HTS EX robot (PerkinElmer, UK). […] Reactions were initiated by the addition of 10 μL Der p 1 dissolved in the reaction buffer at 2.5 μg/mL and followed at 30 °C by measurement of fluorescence (excitation/emission 330/420 nm) using either a Fusion Alpha-FP or Envision plate reader fitted with a temperature-controlled carrier (PerkinElmer, UK).
Inhibitor kinetics were analyzed from progress curves. For reversible inhibitors, IC50 values were calculated conventionally.

[1] = all other time points than those stated not significant, 50:1 molar equivalents
[2] = time points other than the stated exceptions, 50:1 molar equivalents i.t. aerosol
[3] = all time points, naive BN rats, HDM extract 10 µg Der p 1, single i.t. aerosol dose 50:1 molar equivalents
[4] = all time points, naive BN rats, HDM extract 10 µg Der p 1, single i.t. aerosol dose 50:1 molar equivalents to Der p 1

Compound | performance in vivo (maximum inhibition of the eosinophil response, Figure 5A) (unsensitized BN rats) | BAL neutrophil response: significance of effect (P<0.05) (unsensitized BN rats; pre-treatment at 60 min) | Reduction in BAL eosinophil response: significance of inhibition (P<0.05) (unsensitized BN rats; [2]) | potency against the target molecule in vitro (Der p 1) | BAL neutrophil response: significance of effect (P<0.05) (unsensitized BN rats; [3]) | Reduction in BAL eosinophil response: significance of inhibition (P<0.05) (unsensitized BN rats; [4]) | other results
3-((3S,6S,9S)-3-benzyl-9-isopropyl-6-methyl-1,4,7,10,11-pentaoxo-1-phenyl-2,5,8,12-tetraazatridecan-13-yl)benzoic acid [Compound 7] | effective | not significant | significant | less potent than others |  |  | BAL neutrophil response: significance of effect (P<0.05) (unsensitized BN rats; [1]): significant; BAL neutrophil response: significance of effect (P<0.05) (unsensitized BN rats; pre-treatment at 120 min): not significant; BAL neutrophil response: significance of effect (P<0.05) (unsensitized BN rats; pre-treatment at 360 min): not significant
CC(C)[C@H](NC(=O)[C@H](C)NC(=O)[C@@H](NC(=O)c1ccccc1)C(C)(C)C)C(=O)C(=O)NCC(=O)N1CCc2ccccc2C1 [Compound 3, N-[(S)-1-((S)-1-{(S)-1-[2-(3,4-dihydro-1H-isoquinolin-2-yl)-2-oxo-ethylaminooxalyl]-2-methyl-propylcarbamoyl}-ethylcarbamoyl)-2,2-dimethyl-propyl]-benzamide] |  |  |  |  | significant | significant | 
CC(C)[C@H](NC(=O)[C@H](C)NC(=O)[C@H](Cc1ccccc1)NC(=O)c1ccccc1)C(=O)C(=O)NCC(=O)N1CC[N+](C)(C)CC1.O=C[O-] [Compound 4, 4-(2-{(S)-3-[(S)-2-((S)-2-benzoylamino-3-phenyl-propionylamino)-propionylamino]-4-methyl-2-oxo-pentanoylamino}-acetyl)-1,1-dimethyl-piperazin-1-ium formate] | effective |  |  | less potent than others | significant | significant | 
CC(C)[C@H](NC(=O)[C@H](C)NC(=O)[C@@H](NC(=O)c1ccnc2ccccc12)C(C)(C)C)C(=O)C(=O)NCc1ccccc1 [Compound 5, quinoline-4-carboxylic acid {(S)-1-[(S)-1-((S)-1-benzylaminooxalyl-2-methyl-propylcarbamoyl)-ethylcarbamoyl]-2,2-dimethyl-propyl}-amide] | effective |  |  | less potent than others | significant | significant | onset: temporal separation between drug dosing and HDM challenge required to achieve 50% inhibition of the eosinophil response (unsensitized BN rats; estimated, Figure 5D–F, in words): slower onset
CC(C)[C@H](NC(=O)[C@H](C)NC(=O)[C@H](Cc1ccccc1)NC(=O)c1cccc2ccccc12)C(=O)C(=O)NCC(=O)N1CCN(C)CC1 [Compound 8, N-((S)-1-(((S)-1-(((S)-4-methyl-1-((2-(4-methylpiperazin-1-yl)-2-oxoethyl)amino)-1,2-dioxopentan-3-yl)amino)-1-oxopropan-2-yl)amino)-1-oxo-3-phenylpropan-2-yl)-1-naphthamide] | effective | not significant |  | less potent than others |  | significant | BAL neutrophil response: significance of effect (P<0.05) (unsensitized BN rats; [1]): significant
CNC(=O)c1ccc(CNC(=O)C(=O)[C@@H](NC(=O)[C@H](C)NC(=O)[C@@H](N2Cc3ccccc3C2=O)C(C)(C)C)C(C)C)cc1 [Compound 9, 4-[((S)-3-{(S)-2-[(S)-3,3-dimethyl-2-(1-oxo-1,3-dihydro-isoindol-2-yl)-butyrylamino]-propionylamino}-4-methyl-2-oxo-pentanoylamino)-methyl]-N-methyl-benzamide] |  |  | significant |  | not significant |  | 
CC(C)[C@H](NC(=O)[C@H](C)NC(=O)[C@@H](NC(=O)c1ccnc2ccccc12)C(C)(C)C)C(=O)C(=O)NCC(=O)N1CCN(C(C)C)CC1 [Compound 10, quinoline-4-carboxylic acid [(S)-1-((S)-1-{(S)-1-[2-(4-isopropyl-piperazin-1-yl)-2-oxo-ethylaminooxalyl]-2-methyl-propylcarbamoyl}-ethylcarbamoyl)-2,2-dimethyl-propyl]-amide] | performed less satisfactorily |  | significant | potent | not significant |  | 
CC(C)[C@H](NC(=O)[C@H](C)NC(=O)[C@H](Cc1ccccc1)NC(=O)c1ccncc1)C(=O)C(=O)NCc1ccccc1 [Compound 11, N-((S)-1-(((S)-1-(((S)-1-(benzylamino)-4-methyl-1,2-dioxopentan-3-yl)amino)-1-oxopropan-2-yl)amino)-1-oxo-3-phenylpropan-2-yl)isonicotinamide] | effective |  |  | less potent than others | not significant | significant | 
CC(C)[C@H](NC(=O)[C@H](C)NC(=O)[C@@H](NC(=O)c1ccncc1)C(C)(C)C)C(=O)C(=O)NC1CCCCC1 [Compound 12, N-{(S)-1-[(S)-1-((S)-1-cyclohexylaminooxalyl-2-methyl-propylcarbamoyl)-ethylcarbamoyl]-2,2-dimethyl-propyl}-isonicotinamide] |  |  |  |  |  | significant | 
CC(C)[C@H](NC(=O)[C@H](C)NC(=O)[C@H](Cc1ccccc1)NC(=O)c1ccccc1)C(=O)C(=O)NCC(=O)N1CCOCC1 [Compound 13, N-((S)-1-{(S)-1-[(S)-2-methyl-1-(2-morpholin-4-yl-2-oxo-ethylaminooxalyl)-propylcarbamoyl]-ethylcarbamoyl}-2-phenyl-ethyl)-benzamide] |  | not significant |  |  |  | significant | BAL neutrophil response: significance of effect (P<0.05) (unsensitized BN rats; pre-treatment at 240 min): not significant
CC(C)[C@H](NC(=O)[C@H](C)NC(=O)[C@@H](NC(=O)c1ccccc1C(=O)O)C(C)(C)C)C(=O)C(=O)NCC(=O)N1CCN(C)CC1 [Compound 14, 2-(((S)-3,3-dimethyl-1-(((S)-1-(((S)-4-methyl-1-((2-(4-methylpiperazin-1-yl)-2-oxoethyl)amino)-1,2-dioxopentan-3-yl)amino)-1-oxopropan-2-yl)amino)-1-oxobutan-2-yl)carbamoyl)benzoic acid] |  |  |  |  | significant | significant | 
CC(C)[C@H](NC(=O)[C@H](C)NC(=O)[C@@H](NC(=O)c1ccccc1)C12CC3CC(CC(C3)C1)C2)C(=O)C(=O)NCC(=O)N1CCN(C)CC1 [Compound 15, N-[(S)-adamantan-1-yl-((S)-1-{(S)-2-methyl-1-[2-(4-methyl-piperazin-1-yl)-2-oxo-ethylaminooxalyl]-propylcarbamoyl}-ethylcarbamoyl)-methyl]-benzamide] | useful in vivo activity |  |  |  | significant | significant | 
N-((S)-1-(((S)-1-(((S)-1-(cyclohexylamino)-4-methyl-1,2-dioxopentan-3-yl)amino)-1-oxopropan-2-yl)amino)-3,3-dimethyl-1-oxobutan-2-yl)isoquinoline-4-carboxamide [Compound 6] |  | not significant | significant |  |  |  | BAL neutrophil response: significance of effect (P<0.05) (unsensitized BN rats; [1]): significant; BAL neutrophil response: significance of effect (P<0.05) (unsensitized BN rats; pre-treatment at 120 min): not significant
